Results as given in patent publication US20020137929A1, “1 - (3-heterocyclylphenyl) isothiourea, -isourea, -guanidine and -amidine herbicidal agents” (Intellectual Property Department, BASF Aktiengesellschaft, priority 1998, published 2002).

Assays:
SETVI (Foxtail, Green) [1] = assay: Preemergence herbicidal evaluation; type: in vivo, Setaria viridis; details: rated 4-5 weeks after treatment
Method in brief: (§1)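 Scores (0–9) reflect visual comparison with control plants for stand, vigor, malformation, size and chlorosis. Compound was applied to the soil after sowing, before emergence, as an aqueous acetone spray (about 0.0156–0.500 kg/ha), and cups were kept in a greenhouse for 4–5 weeks.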

MOOVA (Monochoria) = assay: Preemergence weed control under flooded paddy conditions; type: in vivo, Monochoria vaginalis; details: rated 3-4 weeks after treatment
Method in brief: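 First, seeds or propagules go into the top 0.5 cm of silt loam; next, water is held 1.5 to 3 cm over the soil; then compound (50/50 acetone/water) is pipetted into it at about 0.0313 to 0.500 kg/ha; finally plants are rated visually 0-9 after three to four weeks.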

[2] = tested on: IPOHE (Morningglory, Ivyleaf); assay: Postemergence herbicidal evaluation; type: in vivo, Ipomoea hederacea; details: postemergence
Method in brief: (§2)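 Two-week-old seedlings sprayed with compound in 50/50 acetone/water plus 0.5% TWEEN 20, at about 0.0156 to 0.500 kg/ha, nozzle at 40 psi. Kept in greenhouse; rated visually 4-5 weeks after treatment on a 0-9 scale versus control, repeat tests averaged.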

[3] = tested on: IPOHE (Morningglory, Ivyleaf); assay: Preemergence herbicidal evaluation; type: in vivo, Ipomoea hederacea; details: rated 4-5 weeks after treatment
Method in brief: as §1

ECHCG (Barnyardgrass) = assay: Preemergence herbicidal evaluation; type: in vivo, Echinochloa crus-galli; details: rated 4-5 weeks after treatment
Method in brief: as §1

GALAP (Galium) = assay: Postemergence herbicidal evaluation; type: in vivo, Galium aparine; details: postemergence
Method in brief: as §2

CYPIR (Rice Flatsedge) = assay: Preemergence weed control under flooded paddy conditions; type: in vivo, Cyperus iria; details: rated 3-4 weeks after treatment
Method in brief: (§3)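 Seeds or propagules sown in silt loam kept flooded 1.5-3 cm; compounds in 50/50 acetone/water pipetted into flood water at about 0.0313 to 0.500 kg/ha. Greenhouse; visual 0-9 rating versus untreated control 3-4 weeks after treatment.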

SETVI (Foxtail, Green) [4] = assay: Postemergence herbicidal evaluation; type: in vivo, Setaria viridis; details: postemergence
Method in brief: as §2

[5] = tested on: TRZAWR (Wheat, Winter, cv Riband); assay: Postemergence herbicidal evaluation; type: in vivo, Triticum aestivum; details: postemergence
Method in brief: as §2

[6] = tested on: ECHORC (Watergrass (Calif.)); assay: Preemergence weed control under flooded paddy conditions; type: in vivo, Echinochloa oryzoides; details: rated 3-4 weeks after treatment
Method in brief: as §3

ABUTH (Velvetleaf) = assay: Preemergence herbicidal evaluation; type: in vivo, Abutilon theophrasti; details: rated 4-5 weeks after treatment
Method in brief: as §1

ZEAMX (Corn, Field) = assay: Preemergence herbicidal evaluation; type: in vivo, Zea mays; details: rated 4-5 weeks after treatment
Method in brief: as §1

[7] = rate 0.0313 kg/ha, rating scale 0-9
[8] = rate 0.0625 kg/ha, rating scale 0-9
[9] = rate 0.1250 kg/ha, rating scale 0-9
[10] = rate 0.2500 kg/ha, rating scale 0-9

CCN1C(=O)CSC1=Nc1cc(-n2c(=O)cc(C(F)(F)F)n(C)c2=O)c(F)cc1Cl [Compound 159, 3-{4-Chloro-5-[(3-ethyl-4-oxo-2-thiazolidinyl-idene)amino]-2-fluorophenyl}-1-methyl-6-(trifluoromethyl)-2,4(1H,3H)-pyrimidinedione]
Preemergence herbicidal rating SETVI (SETVI (Foxtail, Green) [1]; 0.0156 kg/ha): 1.0
Preemergence herbicidal rating SETVI (SETVI (Foxtail, Green) [1]; 0.0313 kg/ha): 8.0
Preemergence herbicidal rating SETVI (SETVI (Foxtail, Green) [1]; 0.0625 kg/ha): 7.0
Preemergence herbicidal rating SETVI (SETVI (Foxtail, Green) [1]; 0.1250 kg/ha): 9.0
Preemergence herbicidal rating SETVI (SETVI (Foxtail, Green) [1]; 0.2500 kg/ha): 7.0
herbicidal effect rating, MOOVA (MOOVA (Monochoria); 0.0313 kg/ha): 0.0
herbicidal effect rating, MOOVA (MOOVA (Monochoria); 0.0625 kg/ha): 3.0
herbicidal effect rating, MOOVA (MOOVA (Monochoria); 0.1250 kg/ha): 6.0
herbicidal effect rating, MOOVA (MOOVA (Monochoria); 0.2500 kg/ha): 9.0
Herbicidal rating IPOHE ([2]; rate 0.0156 kg/ha): 9.0
Herbicidal rating IPOHE ([2]; rate 0.0313 kg/ha): 9.0
Herbicidal rating IPOHE ([2]; rate 0.0625 kg/ha): 9.0
Preemergence herbicidal rating IPOHE ([3]; 0.0156 kg/ha): 0.0
Preemergence herbicidal rating IPOHE ([3]; 0.0313 kg/ha): 2.0
Preemergence herbicidal rating IPOHE ([3]; 0.0625 kg/ha): 9.0
Preemergence herbicidal rating IPOHE ([3]; 0.1250 kg/ha): 7.0
Preemergence herbicidal rating IPOHE ([3]; 0.2500 kg/ha): 9.0
Preemergence herbicidal rating ECHCG (ECHCG (Barnyardgrass); 0.0156 kg/ha): 0.0
Preemergence herbicidal rating ECHCG (ECHCG (Barnyardgrass); 0.0313 kg/ha): 1.0
Preemergence herbicidal rating ECHCG (ECHCG (Barnyardgrass); 0.0625 kg/ha): 0.0
Preemergence herbicidal rating ECHCG (ECHCG (Barnyardgrass); 0.1250 kg/ha): 2.0
Preemergence herbicidal rating ECHCG (ECHCG (Barnyardgrass); 0.2500 kg/ha): 3.0
Herbicidal rating GALAP (GALAP (Galium); rate 0.0156 kg/ha): 0.0
Herbicidal rating GALAP (GALAP (Galium); rate 0.0313 kg/ha): 1.0
Herbicidal rating GALAP (GALAP (Galium); rate 0.0625 kg/ha): 4.0
herbicidal effect rating, CYPIR (CYPIR (Rice Flatsedge); 0.0313 kg/ha): 0.0
herbicidal effect rating, CYPIR (CYPIR (Rice Flatsedge); 0.0625 kg/ha): 0.0
herbicidal effect rating, CYPIR (CYPIR (Rice Flatsedge); 0.1250 kg/ha): 3.0
herbicidal effect rating, CYPIR (CYPIR (Rice Flatsedge); 0.2500 kg/ha): 4.0
Herbicidal rating SETVI (SETVI (Foxtail, Green) [4]; rate 0.0156 kg/ha): 1.0
Herbicidal rating SETVI (SETVI (Foxtail, Green) [4]; rate 0.0313 kg/ha): 2.0
Herbicidal rating SETVI (SETVI (Foxtail, Green) [4]; rate 0.0625 kg/ha): 7.0
Herbicidal rating TRZAWR ([5]; rate 0.0156 kg/ha): 2.5
Herbicidal rating TRZAWR ([5]; rate 0.0313 kg/ha): 3.5
Herbicidal rating TRZAWR ([5]; rate 0.0625 kg/ha): 3.5
herbicidal effect rating, ECHORC ([6]; 0.0313 kg/ha): 2.0
herbicidal effect rating, ECHORC ([6]; 0.0625 kg/ha): 4.0
herbicidal effect rating, ECHORC ([6]; 0.1250 kg/ha): 5.0
herbicidal effect rating, ECHORC ([6]; 0.2500 kg/ha): 7.0
Preemergence herbicidal rating ABUTH (ABUTH (Velvetleaf); 0.0156 kg/ha): 2.0
Preemergence herbicidal rating ABUTH (ABUTH (Velvetleaf); 0.0313 kg/ha): 9.0
Preemergence herbicidal rating ABUTH (ABUTH (Velvetleaf); 0.0625 kg/ha): 9.0
Preemergence herbicidal rating ABUTH (ABUTH (Velvetleaf); 0.1250 kg/ha): 9.0
Preemergence herbicidal rating ABUTH (ABUTH (Velvetleaf); 0.2500 kg/ha): 9.0
Preemergence herbicidal rating ZEAMX (ZEAMX (Corn, Field); 0.0156 kg/ha): 0.0
Preemergence herbicidal rating ZEAMX (ZEAMX (Corn, Field); 0.0313 kg/ha): 0.0
Preemergence herbicidal rating ZEAMX (ZEAMX (Corn, Field); 0.0625 kg/ha): 1.0
Preemergence herbicidal rating ZEAMX (ZEAMX (Corn, Field); 0.1250 kg/ha): 2.0
Preemergence herbicidal rating ZEAMX (ZEAMX (Corn, Field); 0.2500 kg/ha): 7.0

Cn1c(C(F)(F)F)cc(=O)n(-c2cc(N=C3SCC(=O)N3Cc3ccncc3)c(Cl)cc2F)c1=O [Compound 133, 3-{4-Chloro-2-fluoro-5-{[4-oxo-3-(4-pyridylmethyl)-2-thiazolidinylidene]amino}phenyl}-1-methyl-6-(trifluoromethyl)-2,4(1H,3H)-pyrimidinedione]
Preemergence herbicidal rating SETVI (SETVI (Foxtail, Green) [1]; [7]): 0.0
Preemergence herbicidal rating SETVI (SETVI (Foxtail, Green) [1]; [8]): 0.0
Preemergence herbicidal rating SETVI (SETVI (Foxtail, Green) [1]; [9]): 0.0
Preemergence herbicidal rating SETVI (SETVI (Foxtail, Green) [1]; [10]): 0.0
herbicidal effect rating, MOOVA (MOOVA (Monochoria); 0.0313 kg/ha): 3.0
herbicidal effect rating, MOOVA (MOOVA (Monochoria); 0.0625 kg/ha): 4.0
herbicidal effect rating, MOOVA (MOOVA (Monochoria); 0.1250 kg/ha): 4.0
herbicidal effect rating, MOOVA (MOOVA (Monochoria); 0.2500 kg/ha): 6.0
Herbicidal rating IPOHE ([2]; rate 0.0156 kg/ha): 9.0
Herbicidal rating IPOHE ([2]; rate 0.0313 kg/ha): 9.0
Herbicidal rating IPOHE ([2]; rate 0.0625 kg/ha): 9.0
Preemergence herbicidal rating IPOHE [3, 7]: 0.0
Preemergence herbicidal rating IPOHE [3, 8]: 0.0
Preemergence herbicidal rating IPOHE [3, 9]: 0.0
Preemergence herbicidal rating IPOHE [3, 10]: 1.0
Preemergence herbicidal rating ECHCG (ECHCG (Barnyardgrass); [7]): 0.0
Preemergence herbicidal rating ECHCG (ECHCG (Barnyardgrass); [8]): 0.0
Preemergence herbicidal rating ECHCG (ECHCG (Barnyardgrass); [9]): 0.0
Preemergence herbicidal rating ECHCG (ECHCG (Barnyardgrass); [10]): 0.0
Herbicidal rating GALAP (GALAP (Galium); rate 0.0156 kg/ha): 0.0
Herbicidal rating GALAP (GALAP (Galium); rate 0.0313 kg/ha): 2.0
Herbicidal rating GALAP (GALAP (Galium); rate 0.0625 kg/ha): 3.0
herbicidal effect rating, CYPIR (CYPIR (Rice Flatsedge); 0.0313 kg/ha): 0.0
herbicidal effect rating, CYPIR (CYPIR (Rice Flatsedge); 0.0625 kg/ha): 0.0
herbicidal effect rating, CYPIR (CYPIR (Rice Flatsedge); 0.1250 kg/ha): 2.0
herbicidal effect rating, CYPIR (CYPIR (Rice Flatsedge); 0.2500 kg/ha): 3.0
Herbicidal rating SETVI (SETVI (Foxtail, Green) [4]; rate 0.0156 kg/ha): 1.0
Herbicidal rating SETVI (SETVI (Foxtail, Green) [4]; rate 0.0313 kg/ha): 1.0
Herbicidal rating SETVI (SETVI (Foxtail, Green) [4]; rate 0.0625 kg/ha): 2.0
Herbicidal rating TRZAWR ([5]; rate 0.0156 kg/ha): 2.5
Herbicidal rating TRZAWR ([5]; rate 0.0313 kg/ha): 3.0
Herbicidal rating TRZAWR ([5]; rate 0.0625 kg/ha): 3.5
herbicidal effect rating, ECHORC ([6]; 0.0313 kg/ha): 6.0
herbicidal effect rating, ECHORC ([6]; 0.0625 kg/ha): 6.0
herbicidal effect rating, ECHORC ([6]; 0.1250 kg/ha): 9.0
herbicidal effect rating, ECHORC ([6]; 0.2500 kg/ha): 9.0
Preemergence herbicidal rating ABUTH (ABUTH (Velvetleaf); [7]): 0.0
Preemergence herbicidal rating ABUTH (ABUTH (Velvetleaf); [8]): 0.0
Preemergence herbicidal rating ABUTH (ABUTH (Velvetleaf); [9]): 1.0
Preemergence herbicidal rating ABUTH (ABUTH (Velvetleaf); [10]): 5.0
Preemergence herbicidal rating ZEAMX (ZEAMX (Corn, Field); [7]): 0.0
Preemergence herbicidal rating ZEAMX (ZEAMX (Corn, Field); [8]): 0.0
Preemergence herbicidal rating ZEAMX (ZEAMX (Corn, Field); [9]): 0.0
Preemergence herbicidal rating ZEAMX (ZEAMX (Corn, Field); [10]): 0.0
